Five compounds from patent US20140213513A1 (Sanofi, priority 2012, published 2014) can be followed below.

In brackets after ≈: the same amount, converted by molar mass. Like-named read-outs stand apart in the source and are kept apart here. *1 amine or outer side, *2 acyl side, *3 side chain or, on linkers, in order; H or OH if unused. Where a SMILES comes first, the peptide text is derived from it. Side-chain parts run from the residue outwards. [ ]: non-standard residue; d: D form. The star is where a group is joined. γGlu = O=C(O)[C@H](CCC(=O)[*:2])N[*:1]; Stearoyl = CCCCCCCCCCCCCCCCCC(=O)*; Palmitoyl = CCCCCCCCCCCCCCCC(=O)*; Aib = CC(C)(N)C(=O)O

Data set [1] can be described thus: Solubility testing in buffer (HPLC-UV of supernatant). The data set is classed as physicochemical.
The target of data set [2] is T1, human GIP receptor (hGIP R) (Homo sapiens, UniProt P48546).
T1 construct: expressed in transfected cells
T1 sequence (P48546 22-466): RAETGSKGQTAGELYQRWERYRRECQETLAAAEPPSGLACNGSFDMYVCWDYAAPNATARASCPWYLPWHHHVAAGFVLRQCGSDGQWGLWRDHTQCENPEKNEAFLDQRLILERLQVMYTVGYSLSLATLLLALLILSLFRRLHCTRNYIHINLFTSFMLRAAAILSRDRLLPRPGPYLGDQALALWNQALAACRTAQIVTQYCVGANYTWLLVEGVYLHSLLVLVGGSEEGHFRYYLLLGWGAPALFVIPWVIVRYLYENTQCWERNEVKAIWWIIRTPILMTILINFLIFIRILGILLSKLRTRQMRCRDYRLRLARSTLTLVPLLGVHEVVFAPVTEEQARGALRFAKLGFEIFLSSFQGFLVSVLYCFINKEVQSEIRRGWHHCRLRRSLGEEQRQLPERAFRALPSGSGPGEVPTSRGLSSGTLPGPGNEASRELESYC
Kind of data set: cAMP response of HEK-293 cells stably expressing human GIP receptor (HTRF). In kind it is cell-based. The following applies: Table 7; cAMP formation. The gist of the method:
(§1)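 Intracellular cAMP is quantified by HTRF following a 30-minute room-temperature incubation of cell suspensions (400000 cells/ml) with test compound in HBSS, 20 mM HEPES, 0.1% BSA and 2 mM IBMX.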

The nature of data set [3]: Pharmacokinetic testing in mice (plasma LC/MS). The data set is classed as in vivo. The following applies: mouse, sc, 1 mg/kg s.c. As for the experimental part:
Mice were dosed 1 mg/kg subcutaneously (s.c.).
Pharmacokinetic profiles were determined as described in Methods.

In data set [4] the target is T2, human GLP-1 receptor (hGLP-1 R) (Homo sapiens, UniProt P43220).
T2 construct: expressed in transfected cells
T2 sequence (P43220 24-463): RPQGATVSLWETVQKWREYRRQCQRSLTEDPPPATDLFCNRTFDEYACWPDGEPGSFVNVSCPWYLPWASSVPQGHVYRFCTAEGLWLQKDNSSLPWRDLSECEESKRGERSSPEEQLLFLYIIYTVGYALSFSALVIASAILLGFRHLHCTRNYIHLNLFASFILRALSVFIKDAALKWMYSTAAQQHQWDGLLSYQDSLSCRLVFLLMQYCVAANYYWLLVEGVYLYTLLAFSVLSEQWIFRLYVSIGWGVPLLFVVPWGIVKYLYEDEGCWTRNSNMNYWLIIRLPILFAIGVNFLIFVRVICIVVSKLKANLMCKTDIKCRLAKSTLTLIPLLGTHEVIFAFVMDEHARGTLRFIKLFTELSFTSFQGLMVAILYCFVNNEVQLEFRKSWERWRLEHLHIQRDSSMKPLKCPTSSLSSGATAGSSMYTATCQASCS
Put plainly: cAMP response of HEK-293 cells stably expressing human GLP-1 receptor (HTRF). In kind it is cell-based. The following applies: Table 7; cAMP formation. The gist of the method: as §1

The target of data set [5] is T3, human glucagon receptor (hGLUC R) (Homo sapiens, UniProt P47871).
T3 construct: expressed in transfected cells
T3 sequence (P47871 26-477): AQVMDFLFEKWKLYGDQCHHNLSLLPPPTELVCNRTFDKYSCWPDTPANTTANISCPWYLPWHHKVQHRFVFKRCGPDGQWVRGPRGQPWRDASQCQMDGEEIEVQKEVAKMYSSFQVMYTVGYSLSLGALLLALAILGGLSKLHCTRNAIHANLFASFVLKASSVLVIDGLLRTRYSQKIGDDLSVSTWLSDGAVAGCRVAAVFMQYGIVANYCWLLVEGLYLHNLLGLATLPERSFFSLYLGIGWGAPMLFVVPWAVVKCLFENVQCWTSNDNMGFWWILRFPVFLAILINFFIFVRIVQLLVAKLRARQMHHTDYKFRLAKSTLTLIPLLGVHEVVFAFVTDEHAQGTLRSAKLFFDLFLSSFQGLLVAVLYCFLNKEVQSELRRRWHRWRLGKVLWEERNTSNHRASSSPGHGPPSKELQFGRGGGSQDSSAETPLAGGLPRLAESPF
Put plainly: cAMP response of HEK-293 cells stably expressing human glucagon receptor (HTRF). In kind it is cell-based. The following applies: Table 7; cAMP formation. The gist of the method: as §1

Data set [6] deals with human GLP-1 receptor (human) (UniProt P43220). Kind of data set: cell-based or functional assay.
Chain of human GLP-1 receptor (human) (P43220 24-463): as the sequence (P43220 24-463) above
Data set [7] has as its target T4, human GIP receptor (human) (UniProt P48546).
T4 sequence (looked up): T1 sequence (P48546 22-466)
Put plainly: cell-based or functional assay.

[8] abbreviates: pH 4.5, target concentration 1.0 mg/mL, read-out: Solubility (pH 4.5).
[9] abbreviates: pH 7.4, target concentration 1.0 mg/mL, read-out: Solubility (pH 7.4).

Consider `CCCCCCCCCCCCCCCC(=O)N[C@@H](CCC(=O)NCCCC[C@H](NC(=O)[C@H](CCC(N)=O)NC(=O)[C@@H](NC(=O)[C@H](CO)NC(=O)[C@H](CC(C)C)NC(=O)[C@H](CC(=O)O)NC(=O)[C@H](CO)NC(=O)[C@@H](NC(=O)[C@H](Cc1ccccc1)NC(=O)[C@@H](NC(=O)CNC(=O)[C@H](CCC(N)=O)NC(=O)C(C)(C)NC(=O)[C@@H](N)Cc1ccc(O)cc1)[C@@H](C)O)[C@@H](C)O)[C@@H](C)CC)C(=O)N[C@@H](CCC(=O)O)C(=O)N[C@@H](CCCCN)C(=O)N[C@@H](CCCNC(=N)N)C(=O)N[C@@H](C)C(=O)N[C@@H](C)C(=O)NC(C)(C)C(=O)N[C@@H](CCC(=O)O)C(=O)N[C@@H](Cc1ccccc1)C(=O)N[C@H](C(=O)N[C@@H](CCC(=O)O)C(=O)N[C@@H](Cc1c[nH]c2ccccc12)C(=O)N[C@@H](CC(C)C)C(=O)N[C@@H](CCCCN)C(=O)N[C@@H](C)C(=O)N[C@H](C)C(=O)NCC(=O)N1CCC[C@H]1C(=O)N[C@@H](CO)C(=O)N[C@@H](CO)C(=O)NCC(=O)N[C@@H](C)C(=O)N1CCC[C@H]1C(=O)N1CCC[C@H]1C(=O)N1CCC[C@H]1C(=O)N[C@@H](CO)C(N)=O)[C@@H](C)CC)C(=O)O` [SEQ ID NO: 14, Y-Aib-Q-G-T-F-T-S-D-L-S-I-Q-K(yE-x53)-E-K-R-A-A-Aib-E-F-I-E-W-L-K-A-dAla-G-P-S-S-G-A-P-P-P-S-N H2], for which the results for the solubility at 2 h in data set [1] (setting [8]) and in data set [1] (setting [9]) were 1020 µg/mL (≈ 227 µM) and greater than 1000 µg/mL, respectively. Further, the EC50 in data set [2] turned out to be 6.2 pM; in data set [4] it was 6.5 pM; in data set [5], 62.3 pM. For the same compound, in data set [3], the peak level (Cmax) was 5570 ng/mL. In data set [3], the half-life is 2.2 h.

Turning to Tyr(1)Ile(12)-exendin-4 (peptide), the EC50 hGLP-1 R in data set [6] was determined as 1.3 pM. Besides, the EC50 hGIP R in data set [7] was found to be 93.9 pM.

Consider `CCCCCCCCCCCCCCCCCC(=O)N[C@@H](CCC(=O)NCCCC[C@H](NC(=O)[C@H](CCC(N)=O)NC(=O)[C@@H](NC(=O)[C@H](CO)NC(=O)[C@H](CC(C)C)NC(=O)[C@H](CC(=O)O)NC(=O)[C@H](CO)NC(=O)[C@@H](NC(=O)[C@H](Cc1ccccc1)NC(=O)[C@@H](NC(=O)CNC(=O)[C@H](Cc1c[nH]cn1)NC(=O)C(C)(C)NC(=O)[C@@H](N)Cc1ccc(O)cc1)[C@@H](C)O)[C@@H](C)O)[C@@H](C)CC)C(=O)N[C@@H](CCC(=O)O)C(=O)N[C@@H](CCCCN)C(=O)N[C@@H](CCCNC(=N)N)C(=O)N[C@@H](C)C(=O)N[C@@H](C)C(=O)NC(C)(C)C(=O)N[C@@H](CCC(=O)O)C(=O)N[C@@H](Cc1ccccc1)C(=O)N[C@H](C(=O)N[C@@H](CCC(=O)O)C(=O)N[C@@H](Cc1c[nH]c2ccccc12)C(=O)N[C@@H](CC(C)C)C(=O)N[C@@H](CCCCN)C(=O)N[C@@H](CC(N)=O)C(=O)N[C@H](C(=O)NCC(=O)N1CCC[C@H]1C(=O)N[C@@H](CO)C(=O)N[C@@H](CO)C(=O)NCC(=O)N[C@@H](C)C(=O)N1CCC[C@H]1C(=O)N1CCC[C@H]1C(=O)N1CCC[C@H]1C(=O)N[C@@H](CO)C(N)=O)[C@@H](C)O)[C@@H](C)CC)C(=O)O` [SEQ ID NO: 18, Y-Aib-H-G-T-F-T-S-D-L-S-I-Q-K(yE-x70)-E-K-R-A-A-Aib-E-F-I-E-W-L-K-N-T-G-P-S-S-G-A-P-P-P-S-NH2] (H-Y[Aib]HGTFTSDLSIQK([γGlu-Stearoyl])EKRAA[Aib]EFIEWLKNTGPSSGAPPPS-NH2), for which the solubility at 2 h came to 966 µg/mL (≈ 209 µM) in data set [1] (setting [8]) and 768 µg/mL (≈ 166 µM) in data set [1] (setting [9]). The figures for the EC50 in data set [2], in data set [4] and in data set [5] were 9.5 pM, 18.3 pM and 9.5 pM, respectively.

For `CCCCCCCCCCCCCCCC(=O)N[C@@H](CCC(=O)NCCCC[C@H](NC(=O)[C@H](CCC(N)=O)NC(=O)[C@@H](NC(=O)[C@H](CO)NC(=O)[C@H](CC(C)C)NC(=O)[C@H](CC(=O)O)NC(=O)[C@H](CO)NC(=O)[C@@H](NC(=O)[C@H](Cc1ccccc1)NC(=O)[C@@H](NC(=O)CNC(=O)[C@H](CCC(=O)O)NC(=O)C(C)(C)NC(=O)[C@@H](N)Cc1ccc(O)cc1)[C@@H](C)O)[C@@H](C)O)[C@@H](C)CC)C(=O)N[C@@H](CCC(=O)O)C(=O)N[C@@H](CCC(=O)O)C(=O)N[C@@H](CCCNC(=N)N)C(=O)N[C@@H](C)C(=O)N[C@@H](C)C(=O)N[C@@H](Cc1c[nH]cn1)C(=O)N[C@@H](CCC(=O)O)C(=O)N[C@@H](Cc1ccccc1)C(=O)N[C@H](C(=O)N[C@@H](CCC(=O)O)C(=O)N[C@@H](Cc1c[nH]c2ccccc12)C(=O)N[C@@H](CC(C)C)C(=O)N[C@@H](CCCCN)C(=O)N[C@@H](CCCNC(=N)N)C(=O)NC(C)(C)C(=O)NCC(=O)N1CCC[C@H]1C(=O)N[C@@H](CO)C(=O)N[C@@H](CO)C(=O)NCC(=O)N[C@@H](C)C(=O)N1CCC[C@H]1C(=O)N1CCC[C@H]1C(=O)N1CCC[C@H]1C(=O)N[C@@H](CO)C(N)=O)[C@@H](C)CC)C(=O)O` [SEQ ID NO: 37, Y-Aib-E-G-T-F-T-S-D-L-S-I-Q-K(yE-x53)-E-E-R-A-A-H-E-F-I-E-W-L-K-R-Aib-G-P-S-S-G-A-P-P-P-S-NH2], the solubility at 2 h in data set [1] (setting [8]) and in data set [1] (setting [9]) was greater than 1000 µg/mL throughout. The values for the EC50 in data set [2], in data set [4] and in data set [5] were 12.1 pM, 6.6 pM and 12100 pM, respectively.

As to `CCCCCCCCCCCCCCCC(=O)N[C@@H](CCC(=O)NCCCC[C@H](NC(=O)[C@H](CCC(N)=O)NC(=O)[C@H](CCCCN)NC(=O)[C@H](CO)NC(=O)[C@H](CC(C)C)NC(=O)[C@H](CC(=O)O)NC(=O)[C@H](CO)NC(=O)[C@@H](NC(=O)[C@H](Cc1ccccc1)NC(=O)[C@@H](NC(=O)CNC(=O)[C@H](CCC(=O)O)NC(=O)C(C)(C)NC(=O)[C@@H](N)Cc1ccc(O)cc1)[C@@H](C)O)[C@@H](C)O)C(=O)N[C@@H](CCC(=O)O)C(=O)N[C@@H](CCCCN)C(=O)N[C@@H](CCC(=O)O)C(=O)N[C@@H](C)C(=O)N[C@@H](C)C(=O)NC(C)(C)C(=O)N[C@@H](CCC(=O)O)C(=O)N[C@@H](Cc1ccccc1)C(=O)N[C@H](C(=O)N[C@@H](CCC(=O)O)C(=O)N[C@@H](Cc1c[nH]c2ccccc12)C(=O)N[C@@H](CC(C)C)C(=O)N[C@@H](CCCCN)C(=O)N[C@@H](C)C(=O)NCC(=O)NCC(=O)N1CCC[C@H]1C(=O)N[C@@H](CO)C(=O)N[C@@H](CO)C(=O)NCC(=O)N[C@@H](C)C(=O)N1CCC[C@H]1C(=O)N1CCC[C@H]1C(=O)N1CCC[C@H]1C(=O)N[C@@H](CO)C(N)=O)[C@@H](C)CC)C(=O)O` [SEQ ID NO: 17, Y-Aib-E-G-T-F-T-S-D-L-S-K-Q-K(yE-x53)-E-K-E-A-A-Aib-E-F-I-E-W-L-K-A-G-G-P-S-S-G-A-P-P-P-S-NH2] (H-Y[Aib]EGTFTSDLSKQK([γGlu-Palmitoyl])EKEAA[Aib]EFIEWLKAGGPSSGAPPPS-NH2), the solubility at 2 h in data set [1] (setting [8]) and in data set [1] (setting [9]) was greater than 1000 µg/mL each time. Also, the EC50 in data set [2] was determined as 8.3 pM; in data set [4], 5.2 pM; in data set [5], 21000 pM.
